Measured values as given in PMC6222718, “Ethylenediamine Derived Carboxamides of Betulinic and Ursolic Acid as Potential Cytotoxic Agents” (Molecules : A Journal of Synthetic Chemistry and Natural …, 2018).

Columns and labels:
518A2 (melanoma) = assay: SRB cytotoxicity assay, 518A2; format: cell-based, human; conditions: for EC50: Homo sapiens, SRB assay, 96 h of treatment, 518A2; for Selectivity index (SI) 518A2: SI = EC50 (NIH 3T3)/EC50 (518A2)
Method: (§1) The cytotoxicity of ursolic and betulinic carboxamides 3–30 was determined in sulforhodamine B (SRB) assays.
(§2) The cell lines used were human cancer cell lines: 518A2 (melanoma), A2780 (ovarian carcinoma), HT29 (colon adenocarcinoma), MCF-7 (breast adenocarcinoma), 8505C (thyroid carcinoma) and non-malignant mouse fibroblasts NIH 3T3. Cultures were maintained as monolayers in RPMI 1640 medium with L-glutamine (Capricorn Scientific GmbH, Ebsdorfergrund, Germany) supplemented with 10% heat inactivated fetal bovineserum (Sigma-Aldrich Chemie GmbH, Steinheim, Germany) and penicillin/streptomycin (Capricorn Scientific GmbH, Ebsdorfergrund, Germany) at 37 °C in a humidified atmosphere with 5% CO2.
(§3) The cytotoxicity of the compounds was evaluated using the sulforhodamine-B (Kiton-Red S, ABCR) micro culture colorimetric assay. Cells were seeded into 96-well plates on day 0 at appropriate cell densities to prevent confluence of the cells during the period of experiment. After 24 h, the cells were treated with 6 different concentrations (1, 3, 7, 12, 20 and 30 µM) minimum. The final concentration of DMSO/DMF never exceeded 0.5%, which was non-toxic to the cells. After a 96 h treatment, the supernatant medium from the 96-well plates was discarded, the cells were fixed with 10% trichloroacetic acid (TCA) and allowed to rest at 4 °C. After 24 h fixation, the cells were washed in a strip washer and dyed with SRB solution (100 µL, 0.4% in 1% acetic acid) for about 20 min. After dying, the plates were washed four times with 1% acetic acid to remove the excess of the dye and allowed to air-dry overnight. Tris base solution (200 µL, 10 mM) was added to each well and absorbance was measured at λ = 570 nm using a 96-well plate reader (Tecan Spectra, Crailsheim, Germany). The EC50 values were averaged from three independent experiments performed each in triplicate calculated from semi logarithmic dose response curves applying a non-linear 4P Hills-slope equation (GraphPad Prism5; variables top and bottom were set to 100 and 0, respectively).

[1] = test system: HT29 (colon adenocarcinoma); assay: SRB cytotoxicity assay, HT29; format: cell-based, human; conditions: for EC50: Homo sapiens, HT-29, SRB assay, 96 h of treatment, HT29; for Selectivity index (SI) HT29: SI = EC50 (NIH 3T3)/EC50 (HT29)
Method: as §1, §2, §3

[2] = test system: non-malignant mouse fibroblasts NIH 3T3; assay: SRB cytotoxicity assay, NIH 3T3; format: cell-based; conditions: NIH3T3, 96 h of treatment
Method: as §1, §2, §3

[3] = test system: A2780 (ovarian carcinoma); assay: SRB cytotoxicity assay, A2780; format: cell-based, human; conditions: for EC50: Homo sapiens, SRB assay, 96 h of treatment, A2780; for Selectivity index (SI) A2780: SI = EC50 (NIH 3T3)/EC50 (A2780)
Method: as §1, §2, §3

[4] = test system: 8505C (thyroid carcinoma); assay: SRB cytotoxicity assay, 8505C; format: cell-based, human; conditions: for EC50: Homo sapiens, SRB assay, 96 h of treatment, 8505C; for Selectivity index (SI) 8505C: SI = EC50 (NIH 3T3)/EC50 (8505C)
Method: as §1, §2, §3

[5] = test system: MCF-7 (breast adenocarcinoma); assay: SRB cytotoxicity assay, MCF-7; format: cell-based, human; conditions: for EC50: Homo sapiens, MCF7, SRB assay, 96 h of treatment, MCF-7; for Selectivity index (SI) MCF-7: SI = EC50 (NIH 3T3)/EC50 (MCF-7)
Method: as §1, §2, §3

melting point | SMILES | EC50 (518A2 (melanoma)) [nM] | Selectivity index (SI) 518A2 (518A2 (melanoma)) | EC50 [1] [nM] | Selectivity index (SI) HT29 [1] | EC50 [2] [nM] | EC50 [3] [nM] | Selectivity index (SI) A2780 [3] | EC50 [4] [nM] | Selectivity index (SI) 8505C [4] | EC50 [5] [nM] | Selectivity index (SI) MCF-7 [5]
263 to 266 °C (dec.) | C[C@@H]1CC[C@]2(C(=O)NCCN3CCCC3)CC[C@]3(C)C(=CCC4[C@@]5(C)CC[C@H](O)C(C)(C)C5CC[C@]43C)C2[C@H]1C (stereo partly drawn) [Compound 12, (3β)-N-(2-Pyrrolidin-1-ylethyl)-3-hydroxy-urs-12-en-28-amide] | 5500 ± 100 | 1.13 | 2600 ± 300 | 2.38 | 6200 ± 400 | 3300 ± 300 | 1.88 | 5700 ± 200 | 1.09 | 3500 ± 1000 | 1.77
124 to 127 °C | CC(=O)O[C@H]1CC[C@@]2(C)C(CC[C@]3(C)C2CC=C2C4[C@@H](C)[C@H](C)CC[C@]4(C(=O)NCCN4CCCCC4)CC[C@]23C)C1(C)C (stereo partly drawn) [Compound 6, (3β)-N-(2-Piperidin-1-ylethyl)-3-acetyloxy-urs-12-en-28-amide] | 12200 ± 300 | 0.59 | 4200 ± 500 | 1.71 | 7200 ± 1200 | 6500 ± 500 | 1.11 | 15500 ± 2700 | 0.46 | 6000 ± 900 | 1.20
145 to 147 °C | CC(=O)O[C@H]1CC[C@@]2(C)C(CC[C@]3(C)C2CC=C2C4[C@@H](C)[C@H](C)CC[C@]4(C(=O)NCCN4CCNCC4)CC[C@]23C)C1(C)C (stereo partly drawn) [Compound 7, (3β)-N-(2-Piperazin-1-ylethyl)-3-acetyloxy-urs-12-en-28-amide] | 3200 ± 100 | 0.69 | 1800 ± 200 | 1.22 | 2200 ± 100 | 2400 ± 100 | 0.92 | 5400 ± 400 | 0.41 | 2700 ± 300 | 0.81
117 to 120 °C | CC(=O)O[C@H]1CC[C@@]2(C)C(CC[C@]3(C)C2CC=C2C4[C@@H](C)[C@H](C)CC[C@]4(C(=O)NCCCCN)CC[C@]23C)C1(C)C (stereo partly drawn) [Compound 8, (3β)-N-(4-Aminobutyl)-3-acetyloxy-urs-12-en-28-amide] | 2700 ± 100 | 0.48 | 1700 ± 100 | 0.76 | 1300 ± 200 | 2600 ± 100 | 0.50 | 3200 ± 10 | 0.41 | 1700 ± 100 | 0.76
202 to 205 °C | CC(=O)O[C@H]1CC[C@@]2(C)C(CC[C@]3(C)C2CC=C2C4[C@@H](C)[C@H](C)CC[C@]4(C(=O)NCCN)CC[C@]23C)C1(C)C (stereo partly drawn) [Compound 3, (3β)-N-(2-Aminoethyl)-3-acetyloxy-urs-12-en-28-amide] | 2700 ± 100 | 0.96 | 1800 ± 100 | 1.44 | 2600 ± 300 | 2300 ± 100 | 1.13 | 4100 ± 400 | 0.63 | 2000 ± 100 | 1.30

SMILES | melting point | EC50 (518A2 (melanoma)) [nM] | Selectivity index (SI) 518A2 (518A2 (melanoma)) | EC50 [1] [nM] | Selectivity index (SI) HT29 [1] | EC50 [2] [nM] | EC50 [3] [nM] | Selectivity index (SI) A2780 [3] | EC50 [4] [nM] | Selectivity index (SI) 8505C [4] | EC50 [5] [nM] | Selectivity index (SI) MCF-7 [5]
C=C(C)C1CC[C@]2(C(=O)NCCN3CCNCC3)CC[C@]3(C)C(CCC4[C@@]5(C)CC[C@H](OC(C)=O)C(C)(C)C5CC[C@]43C)C12 (stereo partly drawn) [Compound 21, (3β)-N-(2-Piperazin-1-ylethyl)-3-acetyloxy-lup-20(29)-en-28-amide] | 107 to 110 °C | 2500 ± 700 | 0.40 | 600 ± 300 | 1.67 | 1000 ± 50 | 1500 ± 60 | 0.67 | 1100 ± 90 | 0.91 | 1900 ± 100 | 0.53
